Tests used:
[1] = molecular target: T1, mu opioid receptor (MOR) (Homo sapiens, UniProt P35372); assay: PathHunter β-arrestin recruitment assay, PAM mode with EC20 endomorphin-1; type: cell-based; conditions: for EC50: read-out: β-arr. EC50
Procedure, shortened: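 Enzyme fragment complementation read-out: β-gal ED fragment fused to receptor, EA fused to β-arrestin, recruitment restoring β-gal activity detected by chemiluminescence. EC50 and percent maximal response derived for each compound.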

[2] = molecular target: T1, mu opioid receptor (MOR); assay: Hit Hunter cAMP signaling assay (adenylyl cyclase inhibition), PAM mode with EC20 endomorphin-1; type: cell-based
[3] = maximal response for β-arrestin recruitment
[4] = cAMP EC50, adenylyl cyclase inhibition
[5] = maximal response for adenylyl cyclase inhibition
[6] = maximal response, β-arrestin recruitment
[7] = adenylyl cyclase inhibition, read-out: cAMP EC50
[8] = maximal response, adenylyl cyclase inhibition

T1 sequence (P35372 whole entry, the tested form may be a part): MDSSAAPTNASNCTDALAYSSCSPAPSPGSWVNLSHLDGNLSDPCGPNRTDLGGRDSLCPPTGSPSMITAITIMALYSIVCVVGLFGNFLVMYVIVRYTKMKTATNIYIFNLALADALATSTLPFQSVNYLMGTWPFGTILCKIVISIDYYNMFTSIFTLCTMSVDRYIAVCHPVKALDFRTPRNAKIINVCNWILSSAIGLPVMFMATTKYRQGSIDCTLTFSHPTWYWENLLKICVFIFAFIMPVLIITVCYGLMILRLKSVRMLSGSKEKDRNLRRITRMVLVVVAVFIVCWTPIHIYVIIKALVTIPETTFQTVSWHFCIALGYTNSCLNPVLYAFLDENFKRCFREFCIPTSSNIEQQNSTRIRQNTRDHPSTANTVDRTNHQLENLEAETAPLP

| SMILES | β-arr Max. Resp. [1, 3] | EC50 ([1]; β-arrestin recruitment) | EC50 [2, 4] | cAMP Max. Resp. [2, 5] | β-arr Max. Resp. [1, 6] | EC50 [2, 7] | cAMP Max. Resp. [2, 8] | allosteric activity for β-arrestin recruitment ([1]; EC20 endomorphin-1 concentration of 4.5 nM) | signaling preference β-arrestin vs cAMP ([1]; comparison of β-arrestin and cAMP assays) | allosteric activity for cAMP signaling ([2]; EC20 endomorphin-1 concentration of 0.45 nM) |
| --- | --- | --- | --- | --- | --- | --- | --- | --- | --- | --- |
| Fc1cnc(Cl)nc1N1CCCCC1c1cc(F)c(F)c(F)c1 (stereo not drawn) [compound 327] | D (D represents a maximal response of < 40%) | < 700 nM | < 700 nM | D (D represents a maximal response of < 40%) | – | – | – | – | – | – |
| Fc1cnc(Cl)nc1N1CC(F)(F)CC1c1cccc(C(F)(F)F)n1 (stereo not drawn) [compound 482] | – | > 2100 nM | – | – | D (D represents a maximal response of < 40%) | > 2100 nM | D (D represents a maximal response of < 40%) | – | – | – |
| CN(C)CC(=O)N1CCN(c2nc(Cl)ncc2F)C(c2cc(F)cc(C(F)(F)F)c2)C1 (racemic) [Compound 306] | D (D represents a maximal response of < 40%) | > 2100 nM | – | F (F represents a maximal response of > 60%) | – | > 2100 nM | – | – | – | – |
| COc1cnc(Cl)nc1N1CCCCC1c1cccc(C(F)(F)F)c1 (stereo not drawn) [compound 361] | D (D represents a maximal response of < 40%) | < 700 nM | < 700 nM | D (D represents a maximal response of < 40%) | – | – | – | – | – | – |
| Fc1ccc(C2CCCCN2c2cccc(Cl)c2)cc1Cl (stereo not drawn) [compound 443] | – | > 2100 nM | > 2100 nM | – | F (F represents a maximal response of > 60%) | – | D (D represents a maximal response of < 40%) | – | – | – |
| COc1ccc(C2C3CCC(C3)N2c2nc(Cl)ncc2F)cc1Br (stereo not drawn) [compound 138] | D (D represents a maximal response of < 40%) | > 2100 nM | > 2100 nM | D (D represents a maximal response of < 40%) | – | – | – | – | – | – |
| Fc1cc(C2CCC(F)CN2c2nc(Cl)ncc2F)cc(C(F)(F)F)c1 (stereo not drawn) [compound 313] | F (F represents a maximal response of > 60%) | > 2100 nM | – | E (E represents a maximal response of 40-60%) | – | 700 to 2100 nM | – | – | – | – |
| OC1CCC(c2cc(F)cc(C(F)(F)F)c2)N(c2nc(Cl)ncc2F)C1 (stereo not drawn) [compound 311] | F (F represents a maximal response of > 60%) | > 2100 nM | 700 to 2100 nM | F (F represents a maximal response of > 60%) | – | – | – | – | – | – |
| Cc1cc(C2CCCCN2S(=O)(=O)c2ccc(Cl)cc2)ccc1F (racemic) [compound 67] | F (F represents a maximal response of > 60%) | > 2100 nM | – | E (E represents a maximal response of 40-60%) | – | 700 to 2100 nM | – | – | – | – |
| Fc1ccc(CN2CCCCC2c2cccc(C(F)(F)F)n2)cc1Cl (stereo not drawn) [compound 161] | F (F represents a maximal response of > 60%) | 700 to 2100 nM | 700 to 2100 nM | E (E represents a maximal response of 40-60%) | – | – | – | – | – | – |
| Fc1ccc(C2COCCN2Cc2cc(Cl)ccc2F)cc1Cl (racemic) [Compound 194] | F (F represents a maximal response of > 60%) | 700 to 2100 nM | – | D (D represents a maximal response of < 40%) | – | 700 to 2100 nM | – | – | – | – |
| COc1ncc(F)c(N2CCCCC2c2ccc(OC)c(Br)c2)n1 (stereo not drawn) [compound 225] | F (F represents a maximal response of > 60%) | > 2100 nM | > 2100 nM | F (F represents a maximal response of > 60%) | – | – | – | – | – | – |
| CN(C)c1ncc(F)c(N2CCCCC2c2cccc(F)n2)n1 (stereo not drawn) [compound 242] | D (D represents a maximal response of < 40%) | > 2100 nM | > 2100 nM | D (D represents a maximal response of < 40%) | – | – | – | – | – | – |
| COc1ccc(C2CCCCN2S(=O)(=O)c2ccc(Cl)cc2)cc1Br (single isomer, unassigned) [compound 5] | D (D represents a maximal response of < 40%) | > 2100 nM | > 2100 nM | D (D represents a maximal response of < 40%) | – | – | – | – | – | – |
| CCN(CC)c1ncc(F)c(N2CCCCC2c2cccc(C(F)(F)F)c2)n1 (stereo not drawn) [compound 254] | D (D represents a maximal response of < 40%) | > 2100 nM | > 2100 nM | E (E represents a maximal response of 40-60%) | – | – | – | – | – | – |
| COc1ccc(C2C(F)CCCN2S(=O)(=O)c2ccc(Cl)cc2)cc1Br (stereo not drawn) [compound 219] | F (F represents a maximal response of > 60%) | 700 to 2100 nM | < 700 nM | F (F represents a maximal response of > 60%) | – | – | – | low positive allosteric activity | preferential signaling via cAMP over β-arrestin | high positive allosteric activity |
| CNc1cccc(C2CCCCN2Cc2cc(Cl)ccc2F)n1 (stereo not drawn) [compound 168] | F (F represents a maximal response of > 60%) | > 2100 nM | > 2100 nM | F (F represents a maximal response of > 60%) | – | – | – | – | – | – |
| Fc1cnc(Cl)nc1N1CCCCC1c1nc2ccccc2s1 (stereo not drawn) [compound 340] | D (D represents a maximal response of < 40%) | < 700 nM | < 700 nM | D (D represents a maximal response of < 40%) | – | – | – | – | – | – |

Source: patent publication US11071731B2, “Allosteric modulators of the mu opioid receptor” (Chiromics, LLC, priority 2017, dated 2021)
